# What was measured:
# [1] = system: Japanese OAB patients; experiment: twelve-week randomized, double-blind, placebo-controlled, parallel-group study of nocturnal pollakiuria in OAB patients; type: in vivo, human; details: for Difference in amount of change (vibegron group − placebo group), least squares mean (95% confidence interval) / Amount of change from baseline in the frequency of urination at night, least squares mean (95% confidence interval): 12 weeks
# Protocol: The efficacy of vibegron on nocturnal pollakiuria in OAB patients was evaluated in a twelve-week randomized, double-blind, placebo-controlled, parallel-group study.
# Japanese OAB patients received either vibegron (50 mg/day or 100 mg/day) or a placebo for 12 weeks. Both 50 mg/day of vibegron and 100 mg/day of vibegron were orally administered in the form of a tablet once daily after breakfast. […] There was no difference among the dose groups in terms of subject background such as gender, age, and BMI.
# The therapeutic effect of vibegron on nocturnal pollakiuria in OAB patients was evaluated based on an average frequency of urination at night, which was determined by using a urination diary to investigate the frequency of urination for three days prior to visits. In this context, nighttime is defined as the period of time between when one goes to bed to sleep and when one wakes up and gets out of bed. Constrained longitudinal data analysis model (cLDA) was used for statistical analysis to estimate the least squares mean and the two-sided 95% confidence interval of each group. Furthermore, the cLDA method was used to estimate the least squares mean difference at evaluation times between the 50 mg or 100 mg vibegron groups and the placebo group and the two-sided 95% confidence intervals thereof, thereby testing the least squares mean difference compared with placebo.
# Numerical values in Table 2 represent the average of the frequency of urination at night at baseline (before drug administration), the least squares mean of the amount of change from baseline in the average frequency of urination at night after 12 weeks of administration, the least squares mean of difference in the amount of change between the vibegron groups and the placebo group, and p-values. In this regard, when the amount of change is less than 0, the smaller value represents a greater therapeutic effect. […] “Patients whose frequency of urination at night is not zero at baseline” are represented as a main subject population, and other “patients whose frequency of urination at night is one or more times at baseline” and “patients whose frequency of urination at night is two or more times at baseline” are represented as populations who have more prominent symptoms of nocturnal pollakiuria. FIG. 1 is a graph in which the numerical values represent the least squares mean (ΔLSmean) of the amount of change from baseline in the frequency of urination at night after 12 weeks of administration.
# [2] = system: Japanese OAB patients; experiment: as above; type: in vivo, human; details: for Least squares mean of the amount of change from baseline in the first voided volume at night / Least squares mean of the amount of change from baseline in the time to first awakening (HUS) / Least squares mean of the amount of change from baseline in the single voided volume at night: patients with frequency of urination at night one or more times per day at baseline; for Least squares mean of the amount of change from baseline in the first voided volume at night: placebo 24.80 mL; for Least squares mean of the amount of change from baseline in the time to first awakening (HUS): placebo 65.08 minutes; for Least squares mean of the amount of change from baseline in the single voided volume at night: placebo +19.42 mL
# [3] = 50 mg and 100 mg groups, patients with nocturnal pollakiuria with nocturnal polyuria, one or more times per day at baseline
# [4] = 50 mg/day oral, patients whose frequency of urination at night is two or more times at baseline
# [5] = 100 mg/day oral, patients whose frequency of urination at night is not zero at baseline
# [6] = 50 mg and 100 mg groups, patients with nocturnal pollakiuria without nocturnal polyuria, one or more times per day at baseline
smiles,measurement,setting,value
"O=C(Nc1ccc(C[C@@H]2CC[C@H]([C@H](O)c3ccccc3)N2)cc1)[C@@H]1CCc2nccc(=O)n21 [Vibegron, (6S)—N-[4-({(2S,5R)-5-[(R)-hydroxy(phenyl)methyl]pyrrolidin-2-yl}methyl)phenyl]-4-oxo-4,6,7,8-tetrahydropyrrolo[1,2-a]pyrimidine-6-carboxamide]",Frequency of urination at night compared with the placebo group,[1]; [3],reduced in the 50 mg vibegron group and the 100 mg vibegron group compared with the placebo group but the difference was not significant
same,"Difference in amount of change (vibegron group − placebo group), least squares mean (95% confidence interval)","[1]; 50 mg/day oral, patients whose frequency of urination at night is not zero at baseline","−0.11 (−0.21, −0.02)"
same,"Difference in amount of change (vibegron group − placebo group), least squares mean (95% confidence interval)","[1]; 50 mg/day oral, patients whose frequency of urination at night is one or more times at baseline","−0.16 (−0.28, −0.04)"
same,"Amount of change from baseline in the frequency of urination at night, least squares mean (95% confidence interval)",[1]; [4],"−1.00 (−1.17, −0.83)"
same,"Difference in amount of change (vibegron group − placebo group), least squares mean (95% confidence interval)",[1]; [4],"−0.15 (−0.38, 0.08)"
same,"Amount of change from baseline in the frequency of urination at night, least squares mean (95% confidence interval)",[1]; [5],"−0.62 (−0.70, −0.55)"
same,"Difference in amount of change (vibegron group − placebo group), least squares mean (95% confidence interval)",[1]; [5],"−0.16 (−0.25, −0.06)"
same,"Difference in amount of change (vibegron group − placebo group), least squares mean (95% confidence interval)","[1]; 100 mg/day oral, patients whose frequency of urination at night is one or more times at baseline","−0.21 (−0.33, −0.09)"
same,"Amount of change from baseline in the frequency of urination at night, least squares mean (95% confidence interval)","[1]; 100 mg/day oral, patients whose frequency of urination at night is two or more times at baseline",−1.16 (−1.34. −0.99)
same,Single voided volume at night compared with the placebo group,[2]; [3],significantly increased
same,Frequency of urination at night compared with the placebo group,[2]; [6],significantly reduced
same,Single voided volume at night compared with the placebo group,[2]; [6],significantly increased
same,"Amount of change from baseline in the frequency of urination at night, least squares mean (95% confidence interval)","[2]; 50 mg/day oral, 12 weeks, patients whose frequency of urination at night is not zero at baseline","−0.58 (−0.65, −0.51)"
same,"Amount of change from baseline in the frequency of urination at night, least squares mean (95% confidence interval)","[2]; 50 mg/day oral, 12 weeks, patients whose frequency of urination at night is one or more times at baseline","−0.74 (−0.82, −0.65)"
same,Least squares mean of the amount of change from baseline in the first voided volume at night,"[2]; 50 mg/day, 12 weeks",48.71 mL
same,Least squares mean of the amount of change from baseline in the time to first awakening (HUS),"[2]; 50 mg/day, 12 weeks",81.79 min
same,Least squares mean of the amount of change from baseline in the single voided volume at night,"[2]; 50 mg/day, 12 weeks",+47.85 mL
same,"Amount of change from baseline in the frequency of urination at night, least squares mean (95% confidence interval)","[2]; 100 mg/day oral, 12 weeks, patients whose frequency of urination at night is one or more times at baseline","−0.78 (−0.87, −0.70)"
same,"Difference in amount of change (vibegron group − placebo group), least squares mean (95% confidence interval)","[2]; 100 mg/day oral, 12 weeks, patients whose frequency of urination at night is two or more times at baseline","−0.31 (−0.55, −0.08)"
same,Least squares mean of the amount of change from baseline in the first voided volume at night,"[2]; 100 mg/day, 12 weeks",71.42 mL
same,Least squares mean of the amount of change from baseline in the time to first awakening (HUS),"[2]; 100 mg/day, 12 weeks",90.95 min
same,Least squares mean of the amount of change from baseline in the single voided volume at night,"[2]; 100 mg/day, 12 weeks",+58.14 mL
